Experimental findings from patent US10633419B2, “Immunomodulators” (BRISTOL-MYERS SQUIBB COMPANY, priority 2014, dated 2020) are described below.

SMILES strings stand for the structures. Starred links: 1 amine or outer side, 2 acyl side, 3 side chain; linkers in the order of their positions; H or OH if unused. Positions of bridges follow the written chain, without caps; N, C: chain ends. Non-standard residues stand in square brackets, D forms with d. Residues, ends and D or L forms follow the SMILES beside them. Groups on a side chain read outwards from the residue. *: point of attachment. δOrn(Nα-Octadecanedioyl) = O=C(O)CCCCCCCCCCCCCCCCC(=O)N[C@@H](CCCN*)C(=O)O; X12 = O=C(O)CCCCCCCCCCCCCCCCCCC(=O)N[C@@H](CCC(=O)NCCCOCCOCCOCCCN*)C(=O)O; X13 = O=C(O)CCCCCCCCCCCCCCC(=O)N[C@@H](CCC(=O)NCCCOCCOCCOCCCN*)C(=O)O; X25 = CCCCCCCC[C@@H](NC(=O)CCC(=O)NCCCOCCOCCOCCCN*)C(=O)O; Trp(1-CH2COOH) = N[C@@H](Cc1cn(CC(=O)O)c2ccccc12)C(=O)O; X23 = O=C(CCCCOCCOCCOCCCN[*:3])C[C@H](N[*:1])C(=O)[*:2]; X3 = NC(=O)[C@H](CC(=O)O)NC(=O)CCC(=O)NCCCOCCOCCOCCCN*; C18 diacid = O=C(O)CCCCCCCCCCCCCCCCC(=O)*; C16 diacid = O=C(O)CCCCCCCCCCCCCCC(=O)*; Phe(4-F) = N[C@@H](Cc1ccc(F)cc1)C(=O)O; γGlu = O=C(O)[C@H](CCC(=O)[*:2])N[*:1]; d(cisHyp) = O=C(O)[C@H]1C[C@@H](O)CN1; NH(CH2)12COOH = O=C(O)CCCCCCCCCCCCN*; Ethylenediamine = C(CN[*:2])N[*:1]; Hyp = O=C(O)[C@@H]1C[C@@H](O)CN1; NMeF = CN[C@@H](Cc1ccccc1)C(=O)O; NMeE = CN[C@@H](CCC(=O)O)C(=O)O; Undecanoyl = CCCCCCCCCCC(=O)*; NMeNle = CCCC[C@H](NC)C(=O)O; Pip = O=C(O)[C@@H]1CCCCN1; NMeA = CN[C@@H](C)C(=O)O; Dab = NCC[C@H](N)C(=O)O; Dap = NC[C@H](N)C(=O)O; Sar = CNCC(=O)O

The target in this test is T1, PD-L1 (Homo sapiens, UniProt Q9NZQ7).
T1 construct: hPDL1(19-239)-TVMV-His; made in house; host or cells: HEK293T
T1 sequence (Q9NZQ7 with tags, fused parts or gaps): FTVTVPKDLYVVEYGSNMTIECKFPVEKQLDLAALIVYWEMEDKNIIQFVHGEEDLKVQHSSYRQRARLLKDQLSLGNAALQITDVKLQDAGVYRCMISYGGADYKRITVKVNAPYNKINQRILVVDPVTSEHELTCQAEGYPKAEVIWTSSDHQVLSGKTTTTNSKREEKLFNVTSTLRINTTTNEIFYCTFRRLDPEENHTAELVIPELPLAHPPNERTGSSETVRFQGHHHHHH
Description: PD-1/PD-L1 Homogenous Time-Resolved Fluorescence (HTRF) binding assay (PD-1-Ig/PD-L1-His). The settings on record: inhibition of PD-1-Ig binding to PD-L1-TVMV-His; value given as range class; read-out: HTRF IC50. An outline of the steps: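 HTRF competition in dPBS with 0.1% BSA and 0.05% Tween-20: 20 nM PD-1-Ig added after 15 min compound pre-incubation with 10 nM PD-L1-His, then another 15 min. Signal (665/620 nm) after 30 min with APC anti-His (20 nM) and Eu anti-Ig (1 nM).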
A general note: Time-resolved FRET reads energy transfer from a long-lived donor to a nearby acceptor.
By IC50 is commonly meant the concentration needed to halve the response being measured. As to `CCCC[C@H]1C(=O)N(C)[C@@H](CCCC)C(=O)N[C@@H](CC(C)C)C(=O)N[C@H](C(=O)NCC(=O)N[C@@H](CCNC(=O)CC[C@H](NC(=O)CCCCCCCCCCCCCCCCC(=O)O)C(=O)O)C(=O)O)CSCC(=O)N[C@@H](Cc2ccc(O)cc2)C(=O)N2CCCC[C@H]2C(=O)N[C@@H](CC(N)=O)C(=O)N2CCC[C@H]2C(=O)N[C@@H](CN)C(=O)N[C@@H](CC(C)C)C(=O)N2C[C@H](O)C[C@H]2C(=O)N[C@@H](Cc2c[nH]c3ccccc23)C(=O)N[C@@H](CCN)C(=O)N[C@@H](Cc2cn(CC(=O)O)c3ccccc23)C(=O)N1C` [Example 13149] ({CH2CO}-Y[Pip]NP[Dap]L[Hyp]W[Dab][Trp(1-CH2COOH)][NMeNle][NMeNle]LCG[Dab]([γGlu-C18 diacid])-OH; thioether N-14), the IC50 is 10 to 99 nM. For the compound `CCCC[C@H]1C(=O)N(C)[C@@H](CCCC)C(=O)N[C@@H](CC(C)C)C(=O)N[C@H](C(=O)N(C)CC(=O)NCCCOCCOCCOCCCNC(=O)CC[C@H](NC(=O)CCCCCCCCCCCCCCC(=O)O)C(=O)O)CSCC(=O)N[C@@H](Cc2ccc(O)cc2)C(=O)N(C)[C@@H](C)C(=O)N[C@@H](CC(N)=O)C(=O)N2CCC[C@H]2C(=O)N[C@@H](CN)C(=O)N[C@@H](CC(C)C)C(=O)N2C[C@H](O)C[C@H]2C(=O)N[C@@H](Cc2c[nH]c3ccccc23)C(=O)N[C@@H](CCN)C(=O)N[C@@H](Cc2cn(CC(=O)O)c3ccccc23)C(=O)N1C` [Example 11171] ({CH2CO}-Y[NMeA]NP[Dap]L[Hyp]W[Dab][Trp(1-CH2COOH)][NMeNle][NMeNle]LC[Sar]-X13; thioether N-14), the IC50 lay in the range of 0.3 to 9.9 nM.

With `CCCC[C@H]1C(=O)N(C)[C@@H](CCCC)C(=O)N[C@@H](CC(C)C)C(=O)N[C@H](C(=O)NCC(=O)N[C@@H](CCC(=O)NCCC[C@H](NC(=O)CCCCCCCCCCCCCCCCC(=O)O)C(=O)O)C(=O)O)CSCC(=O)N[C@@H](Cc2ccc(O)cc2)C(=O)N2CCCC[C@H]2C(=O)N[C@@H](CC(N)=O)C(=O)N2CCC[C@H]2C(=O)N[C@@H](CN)C(=O)N[C@@H](CC(C)C)C(=O)N2C[C@H](O)C[C@H]2C(=O)N[C@@H](Cc2c[nH]c3ccccc23)C(=O)N[C@@H](CCN)C(=O)N[C@@H](Cc2cn(CC(=O)O)c3ccccc23)C(=O)N1C` [Example 13142] ({CH2CO}-Y[Pip]NP[Dap]L[Hyp]W[Dab][Trp(1-CH2COOH)][NMeNle][NMeNle]LCGE(δOrn(Nα-Octadecanedioyl))-OH; thioether N-14), the IC50 is 100 to 1600 nM.

Take `CCCCCCCCCCC(=O)NCCCC[C@H](NC(=O)[C@H](CCC(=O)O)NC(=O)CNC(=O)[C@@H]1CSCC(=O)N[C@@H](Cc2ccc(O)cc2)C(=O)N(C)[C@@H](C)C(=O)N[C@@H](CC(N)=O)C(=O)N2CCC[C@H]2C(=O)N[C@@H](Cc2cnc[nH]2)C(=O)N[C@@H](CCC(=O)O)C(=O)N2C[C@H](O)C[C@H]2C(=O)N[C@@H](Cc2c[nH]c3ccccc23)C(=O)N[C@@H](CO)C(=O)N[C@@H](Cc2c[nH]c3ccccc23)C(=O)N(C)[C@@H](CCCC)C(=O)N(C)[C@@H](CCCC)C(=O)N[C@@H](CC(C)C)C(=O)N1)C(N)=O` [Example 11010] ({CH2CO}-Y[NMeA]NPHE[Hyp]WSW[NMeNle][NMeNle]LCGEK(Undecanoyl)-NH2; thioether N-14): the IC50 lay in the range of 10 to 99 nM. Take `CCCC[C@H]1C(=O)N(C)[C@@H](CCCC)C(=O)N[C@@H](CC(C)C)C(=O)N[C@H](C(=O)N[C@@H](CC(=O)O)C(=O)N[C@@H](CC(=O)NCCCOCCOCCOCCCNC(=O)CC[C@H](NC(=O)CCCCCCCCCCCCCCCCCCC(=O)O)C(=O)O)C(=O)O)CSCC(=O)N[C@@H](Cc2ccc(O)cc2)C(=O)N(C)[C@@H](C)C(=O)N[C@@H](CC(N)=O)C(=O)N2CCC[C@H]2C(=O)N[C@@H](CN)C(=O)N[C@@H](CC(C)C)C(=O)N2C[C@H](O)C[C@H]2C(=O)N[C@@H](Cc2c[nH]c3ccccc23)C(=O)N[C@@H](CCN)C(=O)N[C@@H](Cc2cn(CC(=O)O)c3ccccc23)C(=O)N1C` [Example 11252] ({CH2CO}-Y[NMeA]NP[Dap]L[Hyp]W[Dab][Trp(1-CH2COOH)][NMeNle][NMeNle]LCDD(X12)-OH; thioether N-14): the IC50 is 10 to 99 nM. With `CCCC[C@H]1C(=O)N(C)[C@@H](CCCC)C(=O)N[C@@H](CC(C)C)C(=O)N[C@H](C(=O)NCC(=O)N[C@@H](CC(=O)CCCCOCCOCCOCCCNC(=O)CC[C@H](NC(=O)CCCCCCCCCCCCCCC(=O)O)C(=O)O)C(=O)O)CSCC(=O)N[C@@H](Cc2ccc(O)cc2)C(=O)N(C)[C@@H](C)C(=O)N[C@@H](CC(N)=O)C(=O)N2CCC[C@H]2C(=O)N[C@@H](CN)C(=O)N[C@@H](CC(C)C)C(=O)N2C[C@H](O)C[C@@H]2C(=O)N[C@@H](Cc2c[nH]c3ccccc23)C(=O)N[C@@H](CCN)C(=O)N[C@@H](Cc2cn(CC(=O)O)c3ccccc23)C(=O)N1C` [Example 11158] ({CH2CO}-Y[NMeA]NP[Dap]L[d(cisHyp)]W[Dab][Trp(1-CH2COOH)][NMeNle][NMeNle]LCG[X23]([γGlu-C16 diacid])-OH; thioether N-14) the figure was 10 to 99 nM; with `CCCC[C@H]1C(=O)N(C)[C@@H](CCCC)C(=O)N[C@@H](CC(C)C)C(=O)N[C@H](C(=O)NCC(=O)N[C@@H](CC(=O)NCCNC(=O)CC[C@H](NC(=O)CCCCCCCCCCCCCCCCC(=O)O)C(=O)O)C(=O)O)CSCC(=O)N[C@@H](Cc2ccc(F)cc2)C(=O)N2CCCC[C@H]2C(=O)N[C@@H](CC(=O)O)C(=O)N2CCC[C@H]2C(=O)N[C@@H](CN)C(=O)N[C@@H](CC(C)C)C(=O)N2C[C@H](O)C[C@H]2C(=O)N[C@@H](Cc2c[nH]c3ccccc23)C(=O)N[C@@H](CCN)C(=O)N[C@@H](Cc2cn(CC(=O)O)c3ccccc23)C(=O)N1C` [Example 14124] ({CH2CO}-[Phe(4-F)][Pip]DP[Dap]L[Hyp]W[Dab][Trp(1-CH2COOH)][NMeNle][NMeNle]LCGD([Ethylenediamine-γGlu-C18 diacid])-OH; thioether N-14), 10 to 99 nM; with `CCCCCCCC[C@@H](NC(=O)CCC(=O)NCCCOCCOCCOCCCNC(=O)[C@@H]1CSCC(=O)N[C@@H](Cc2ccc(O)cc2)C(=O)N(C)[C@@H](C)C(=O)N[C@@H](CC(N)=O)C(=O)N2CCC[C@H]2C(=O)N[C@@H](CN)C(=O)N[C@@H](CC(C)C)C(=O)N2C[C@H](O)C[C@H]2C(=O)N[C@@H](Cc2c[nH]c3ccccc23)C(=O)N[C@@H](CCN)C(=O)N[C@@H](Cc2cn(CC(=O)O)c3ccccc23)C(=O)N(C)[C@@H](CCCC)C(=O)N(C)[C@@H](CCCC)C(=O)N[C@@H](CC(C)C)C(=O)N1)C(=O)O` [Example 11135] ({CH2CO}-Y[NMeA]NP[Dap]L[Hyp]W[Dab][Trp(1-CH2COOH)][NMeNle][NMeNle]LC-X25; thioether N-14), 10 to 99 nM. With `CCCC[C@H]1C(=O)N(C)CC(=O)N[C@@H](CC(=O)O)C(=O)N[C@@H](C(C)C)C(=O)N(C)[C@@H](Cc2ccccc2)C(=O)N[C@@H](Cc2ccc(O)cc2)C(=O)N(C)[C@@H](CCC(=O)O)C(=O)N[C@@H](Cc2c[nH]c3ccccc23)C(=O)N[C@@H](Cc2ccc(O)cc2)C(=O)N[C@@H](CC(C)C)C(=O)N[C@H](C(=O)NCC(=O)NCC(=O)NCC(=O)N[C@@H](CCCCN)C(N)=O)CSCC(=O)N[C@@H](Cc2ccccc2)C(=O)N(C)[C@@H](Cc2ccccc2)C(=O)N1C` [Example 3619] ({CH2CO}-F[NMeF][NMeNle][Sar]DV[NMeF]Y[NMeE]WYLCGGGK-NH2; thioether N-13) the figure was 0.3 to 9.9 nM; with `CCCC[C@H]1C(=O)N(C)[C@@H](CCCC)C(=O)N[C@@H](CC(C)C)C(=O)N[C@H](C(=O)NCC(=O)N[C@@H](CC(=O)O)C(=O)N[C@@H](CC(=O)O)C(=O)NCCCCCCCCCCCCC(=O)O)CSCC(=O)N[C@@H](Cc2ccc(O)cc2)C(=O)N(C)[C@@H](C)C(=O)N[C@@H](CC(=O)O)C(=O)N2CCC[C@H]2C(=O)N[C@@H](Cc2cnc[nH]2)C(=O)N[C@@H](CCCCN)C(=O)N2C[C@H](O)C[C@H]2C(=O)N[C@@H](Cc2c[nH]c3ccccc23)C(=O)N[C@@H](CCCCN)C(=O)N[C@@H](Cc2cn(CC(=O)O)c3ccccc23)C(=O)N1C` [Example 11218] ({CH2CO}-Y[NMeA]DPHK[Hyp]WK[Trp(1-CH2COOH)][NMeNle][NMeNle]LCGDD-{NH(CH2)12COOH}; thioether N-14), 10 to 99 nM. On to `CCCC[C@H]1C(=O)N(C)[C@@H](CCCC)C(=O)N[C@@H](CC(C)C)C(=O)N[C@H](C(=O)NCC(=O)N[C@@H](CCC(=O)NCCC[C@H](NC(=O)CCCCCCCCCCCCCCCCC(=O)O)C(=O)O)C(=O)O)CSCC(=O)N[C@@H](Cc2ccc(F)cc2)C(=O)N2CCCC[C@H]2C(=O)N[C@@H](CC(=O)O)C(=O)N2CCC[C@H]2C(=O)N[C@@H](CN)C(=O)N[C@@H](CC(C)C)C(=O)N2C[C@H](O)C[C@H]2C(=O)N[C@@H](Cc2c[nH]c3ccccc23)C(=O)N[C@@H](CCN)C(=O)N[C@@H](Cc2cn(CC(=O)O)c3ccccc23)C(=O)N1C` [Example 13146] ({CH2CO}-[Phe(4-F)][Pip]DP[Dap]L[Hyp]W[Dab][Trp(1-CH2COOH)][NMeNle][NMeNle]LCGE(δOrn(Nα-Octadecanedioyl))-OH; thioether N-14), for which the concentration for half-maximal inhibition (IC50) lay in the range of 10 to 99 nM. With `CCCC[C@H]1C(=O)N(C)[C@@H](CCCC)C(=O)N[C@@H](CC(C)C)C(=O)N[C@H](C(=O)NCC(=O)NCCCOCCOCCOCCCNC(=O)CCC(=O)N[C@@H](CC(=O)O)C(N)=O)CSCC(=O)N[C@@H](Cc2ccc(O)cc2)C(=O)N(C)[C@@H](C)C(=O)N[C@@H](CC(N)=O)C(=O)N2CCC[C@H]2C(=O)N[C@@H](Cc2cnc[nH]2)C(=O)N[C@@H](CCC(=O)O)C(=O)N2C[C@H](O)C[C@H]2C(=O)N[C@@H](Cc2c[nH]c3ccccc23)C(=O)N[C@@H](CCN)C(=O)N[C@@H](Cc2c[nH]c3ccccc23)C(=O)N1C` [Example 11065] ({CH2CO}-Y[NMeA]NPHE[Hyp]W[Dab]W[NMeNle][NMeNle]LCG-X3; thioether N-14) the figure was 10 to 99 nM.
